Earlier results on one compound are cited in US5596019A, “N-acyl-cycloalkylamine derivatives as melatonergics” (Bristol-Myers Squibb Company, priority 1995, dated 1997).

For one series, the system named is circadian rhythms. Conditions: exogenous melatonin, rats.

On to `COc1ccc2[nH]cc(CCNC(C)=O)c2c1` [melatonin, N-acetyl-5-methoxytryptamine], for which the oral bioavailability entry is “often low and variable”. Besides, the “synchronization of circadian rhythms” value in the series on circadian rhythms is recorded as “synchronize circadian rhythms in rats”.
